The record followed here is patent publication US7855215B2, “Cyclic diaryl ureas suitable as tyrosine kinase inhibitors” (Novartis AG, priority 2004, dated 2010).

As a reminder, the melting point is the temperature of the solid-liquid transition. The compound `CN1CCN(CCCNc2cc(Oc3ccc4c(c3)CCN4C(=O)Nc3cccc(C(F)(F)F)c3)ncn2)CC1` [Example 18, 5-{6-[3-(4-Methylpiperazin-1-yl)-propylamino]-pyrimidin-4-yloxy}-2,3-dihydro-indole-1-carboxylic acid (3-trifluormethyl-phenyl)-amide] registered a melting point of 163 °C.

For `Nc1nc(Cl)cc(Oc2ccc3c(c2)CCCCN3C(=O)Nc2cccc(C(F)(F)F)c2)n1` [Example 6, 7-(2-Amino-6-chloro-pyrimidin-4-yloxy)-2,3,4,5-tetrahydro-benzo[b]azepine-1-carboxylic acid (3-trifluoromethyl-phenyl)-amide], the melting point came to 175 °C.

In turn, `CC(C)(N)CCC(=O)Nc1cc(Oc2ccc3c(c2)CCN3C(=O)Nc2ccc(N3CCOCC3)c(C(F)(F)F)c2)ncn1` [Example 39] showed a melting point of 211 to 214 °C.

For the compound `O=C(Nc1cccc(C(F)(F)F)c1)N1CCCCc2cc(Oc3cc(Cl)ncn3)ccc21` [Example 8, 7-(6-Chloro-pyrimidin-4-yloxy)-2,3,4,5-tetrahydro-benzo[b]azepine-1-carboxylic acid (3-trifluoromethyl-phenyl)-amide], the melting point was 120 °C.

Regarding `COC(=O)Nc1cc(Oc2ccc3c(c2)CCN3C(=O)Nc2ccc(N3CCOCC3)c(C(F)(F)F)c2)ncn1` [Example 41], the melting point fell in the range of 206 to 209 °C.

As for `CN1CCN(C(=O)Nc2cc(Oc3ccc4c(c3)CCN4C(=O)Nc3ccc(N4CCOCC4)c(C(F)(F)F)c3)ncn2)CC1` [Example 42], the melting point lay within 175 to 177 °C.

`O=C(Nc1cc(Oc2ccc3c(c2)CCN3C(=O)Nc2ccc(N3CCOCC3)c(C(F)(F)F)c2)ncn1)c1cccnc1` [Example 40] showed a melting point of 253 to 258 °C.

Take `CN1CCN(Cc2ccc(NC(=O)N3CCCc4cc(Oc5ccnc(N)n5)ccc43)cc2C(F)(F)F)CC1` [Example 33, 6-(2-Amino-pyrimidin-4-yloxy)-3,4-dihydro-2H-quinoline-1-carboxylic acid [4-(4-methyl-piperazin-1-ylmethyl)-3-trifluoromethyl-phenyl]-amide]: the melting point was 120 to 123 °C.

Compound `O=C(Nc1ccccc1)c1cc(Oc2ccc3c(c2)CCN3C(=O)Nc2cccc(C(F)(F)F)c2)ncn1` [Example 74, 5-(6-Phenylcarbamoyl-pyrimidin-4-yloxy)-2,3-dihydro-indole-1-carboxylic acid (3-trifluoromethyl-phenyl)-amide] yielded a melting point of 227 to 229 °C.

For `Nc1nccc(Oc2ccc3c(c2)CCCCN3C(=O)Nc2cccc(C(F)(F)F)c2)n1` [Example 7, 7-(2-Amino-pyrimidin-4-yloxy)-2,3,4,5-tetrahydro-benzo[b]azepine-1-carboxylic acid (3-trifluoromethyl-phenyl)-amide], the melting point was 207 °C.

In the case of `CNc1cc(Oc2ccc3c(c2)CCCN3C(=O)Nc2ccc(C(C)(C)C)cc2)ncn1` [Example 3, 6-(6-Methylamino-pyrimidin-4-yloxy)-3,4-dihydro-2H-quinoline-1-carboxylic acid (4-tert.butyl-phenyl)-amide], the melting point lay within 175 to 176 °C.

For the compound `CC(C)Nc1cc(Oc2ccc3c(c2)CCN3C(=O)Nc2cccc(C(F)(F)F)c2)ncn1` [Example 19, 5-(6-Isopropylamino-pyrimidin-4-yloxy)-2,3-dihydro-indole-1-carboxylic acid (3-trifluormethyl-phenyl)-amide], the melting point amounted to 189 °C.

In turn, `CC(C)(CCC(=O)Nc1cc(Oc2ccc3c(c2)CCN3C(=O)Nc2ccc(N3CCOCC3)c(C(F)(F)F)c2)ncn1)[N+](=O)[O-]` [Example 38] had a melting point of 193 to 197 °C.
